The text below walks through data of patent US20200062696A1, “COMPOSITIONS AND METHODS FOR INHIBITING RETICULON 4” (THE REGENTS OF THE UNIVERSITY OF CALIFORNIA, priority 2017, published 2020).

The structures appear in SMILES notation.

In the experiment the target is T1, C1101 in reticulon 4 (RTN4, Uniprot ID Q9NQC3-1) (Homo sapiens, UniProt Q9NQC3).
T1 construct: endogenous in cells; host or cells: SW620 colorectal cancer cell lysate
T1 sequence (Q9NQC3 1-1192): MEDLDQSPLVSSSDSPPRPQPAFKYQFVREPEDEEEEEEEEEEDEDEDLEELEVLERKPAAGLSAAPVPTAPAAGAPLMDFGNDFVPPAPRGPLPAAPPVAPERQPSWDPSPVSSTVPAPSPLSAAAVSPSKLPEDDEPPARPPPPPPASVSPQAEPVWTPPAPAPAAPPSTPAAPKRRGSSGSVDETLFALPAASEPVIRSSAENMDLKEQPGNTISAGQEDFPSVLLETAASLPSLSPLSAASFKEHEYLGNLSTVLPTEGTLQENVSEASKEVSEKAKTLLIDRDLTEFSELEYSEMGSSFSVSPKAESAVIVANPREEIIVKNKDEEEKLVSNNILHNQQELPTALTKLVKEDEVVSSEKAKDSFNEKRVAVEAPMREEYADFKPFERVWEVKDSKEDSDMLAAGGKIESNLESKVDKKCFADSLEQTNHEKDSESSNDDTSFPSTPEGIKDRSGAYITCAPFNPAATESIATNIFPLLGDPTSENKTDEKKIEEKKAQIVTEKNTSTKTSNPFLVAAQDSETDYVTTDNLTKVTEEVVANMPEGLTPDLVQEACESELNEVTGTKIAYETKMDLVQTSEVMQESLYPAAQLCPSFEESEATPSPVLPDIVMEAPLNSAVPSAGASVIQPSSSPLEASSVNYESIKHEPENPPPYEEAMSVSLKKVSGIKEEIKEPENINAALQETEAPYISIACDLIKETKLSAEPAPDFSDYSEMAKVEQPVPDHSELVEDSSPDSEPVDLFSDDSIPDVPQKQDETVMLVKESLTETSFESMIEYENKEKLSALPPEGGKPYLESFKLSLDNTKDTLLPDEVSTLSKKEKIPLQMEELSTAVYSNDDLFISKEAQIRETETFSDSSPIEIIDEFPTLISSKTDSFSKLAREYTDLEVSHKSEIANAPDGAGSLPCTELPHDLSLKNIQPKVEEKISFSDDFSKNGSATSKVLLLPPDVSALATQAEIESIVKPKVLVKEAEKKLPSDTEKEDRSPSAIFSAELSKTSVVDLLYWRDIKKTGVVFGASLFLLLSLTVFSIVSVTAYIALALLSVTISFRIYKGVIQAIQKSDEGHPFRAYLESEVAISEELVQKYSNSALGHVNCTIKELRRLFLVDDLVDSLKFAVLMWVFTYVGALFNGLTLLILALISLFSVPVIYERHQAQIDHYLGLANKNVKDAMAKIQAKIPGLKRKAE
In words: Competitive isoTOP-ABPP against IAyne labeling in SW620 proteomes: RTN4 C1101. It counts as binding. An excerpt: We next performed isoTOP-ABPP studies to identify the direct targets of these lead compounds. We competed either vehicle or DKM 3-30 against labeling of SW620 proteomes with a broad cysteine-reactive probe, iodoacetamide-alkyne (IAyne), followed by appending probe-labeled proteins with a biotin-azide tag bearing a TEV protease recognition site and an isotopically light (for vehicle-treated) or heavy (for fragment-treated) tags via copper catalyzed azide-alkyne cycloaddition (CuAAC)^6,9. We then combined control and treated proteomes in a 1:1 ratio, enriched probe-labeled proteins with avidin, and digested proteomes with trypsin. Avidin-enriched probe-modified tryptic peptides were released by TEV protease digestion for subsequent quantitative proteomic analysis. Through these studies, we identified the top hit for DKM 3-30 as C1101 in reticulon 4 (RTN4, Uniprot ID Q9NQC3-1) with a light to heavy ratio of 3.0 (FIG. 2A; Table 2).
IsoTOP-ABPP Analysis. IsoTOP-ABPP analyses were performed as previously described^5-7. For competitive IsoTOP-ABPP, SW620 cell lysates were pre-incubated with DMSO vehicle or DKM 3-30 (50 μM) for 30 min at 37° C. in phosphate-buffered saline (PBS), and then labeled with IAyne (100 μM) for 1 h at room temperature. […]

As to `C=CC(=O)Nc1ccc(Oc2ccc(Cl)cc2)cc1` [DKM 3-30, N-(4-(4-chlorophenoxy)phenyl)acrylamide], where the note is “DKM 3-30 50 μM, 30 min 37° C., then IAyne 100 μM, ratio >3 indicates bound sites”, the “light to heavy ratio” value is listed as 3.0. Also, the “Ave area ratio (light to heavy ratio), peptide YSNSALGHVNC*TIK, C1101, Q9NQC3” value (SW620 cell proteomes pre-treated with DMSO (light) or ligand 50 μM (heavy) 30 min at 37° C., then IAyne 100 μM 1h, averaged over runs) amounted to 3.04.
